Assay results reported in patent publication US20060211651A1, “Persulfated oligosaccharide acting on selectins and chemokine” (Taisho Pharmaceutical Co., Ltd., priority 2002, published 2006).

Assays:
[1] = test system: secondary lymphoid tissue chemokine; test: BIAcore surface plasmon resonance, immobilized glycosaminoglycan vs SLC; assay type: binding; conditions: for Kd / koff / kon: GAG immobilized, 25° C.
Protocol: (§1) Affinity kinetics of the interaction between various CS/DS chains and each of L-selectin, P-selectin, CD44 and chemokine were examined by surface plasmon resonance using BIAcore™ biosensor [manufactured by BIAcore AB].
(§2) All experiments were performed at 25° C. At stages of washing and dissociation, buffer C (20 mM HEPES-NaOH, 0.15M NaCl, 1 mM CaCl2, 1 mM MgCl2, pH6.8) was used as a running buffer.
(§3) First, about 1.8 to 2.0 kiloresonance unit (1 kiloresonance unit=1 ng/mm^2) of streptavidin were covalently immobilized onto B1 sensor chip via a primary amine group using an amine coupling kit [manufactured by Amercham-Bioscience] according to the instruction provided by the manufacturer. The remaining activated groups were blocked with 150 μl of 1M ethanolamine-HCl (pH8.5). Then, each glycosaminoglycan which had been biotinylated at a reducing end was injected to a sensor tip surface by using EZ-link™ biotin-LC-hydrazide [manufactured by Pierce] so as to obtain about 150 resonance unit of an immobilization level, according to the method of Sadir et al. [J. Biol. Chem., 276, 8288-8296 (2001); all teachings of which are hereby incorporated by reference].
(§4) Binding assay was performed by injecting continuously each of various concentrations of secondary lymphoid tissue chemokine, γ-interferon inducible protein-10, stromal cell-derived factor-1β, monomeric L-selectin [manufactured by Genzyme-Techne], monomeric P-selectin [manufactured by Genzyme-Techne] and monomeric CD44, to a glycosaminoglycan-coupled sensor tip at a flow rate of 30 μl/min for 0 to 90 seconds, and then injecting a running buffer thereto. A response in resonance unit was recorded as a function of a time.
(§5) A sensor tip surface was regenerated with 300 μl of 1 M NaCl when chemokine or CD44 was used, or regenerated with 300 μl of 1 M NaCl, and additional 100 μl of 50 mM EDTA (pH8.0), when selectin was used. As a result of regeneration of a sensor tip surface, a remarkable change in a baseline was not observed.
(§6) An affinity kinetic parameter was determined by BIAevaluation 3.0 software [manufactured by Pharmacia Biosensor] using a single site binding model. […] In FIG. 6 and Table 3, SLC denotes secondary lymphoid tissue chemokin, IP-10 denotes γ-interferon inducible protein-10, SDF-1β denotes stromal cell-derived factor-1β, CS E denotes chondroitin sulfate E, and CS A denotes chondroitin sulfate A. In addition, in Table 3, Kd value for the interaction between monomeric CD44 and chondroitin sulfate E is a value calculated from a binding amount at equilibrium, and Kd value of the interaction between CD44 and hyaluronic acid is a value calculated using CD44-Ig.

monomeric CD44 = biological target: T1, monomeric CD44 (Homo sapiens, UniProt P16070); test: BIAcore surface plasmon resonance, immobilized glycosaminoglycan vs monomeric CD44; assay type: binding
T1 construct: codons of amino acids positions 172 to 178 of human CD44; Myc-His (from vector pcDNA 3.1/Myc-His(+) B) (C); made in house; host or cells: 293T cells, secreted into conditioned medium and purified on anti-CD44 BRIC 235 Sepharose
T1 sequence (P16070 21-178 limits assumed): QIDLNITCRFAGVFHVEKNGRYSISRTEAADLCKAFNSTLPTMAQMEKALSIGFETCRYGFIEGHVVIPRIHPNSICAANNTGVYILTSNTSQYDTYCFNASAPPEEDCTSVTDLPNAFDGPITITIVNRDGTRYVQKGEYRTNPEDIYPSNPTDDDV
Protocol: Human-derived CD44 cDNA was prepared by PCR using a sense primer (SEQ ID NO: 1):
Thereafter, the conditioned medium was subjected to immunoaffinity chromatography with anti-CD44 monoclonal antibody BRIC 235-coupled CNBr-activated Sepharose 4B, to obtain monomeric CD44. The resulting soluble CD44 was subjected to SDS-PAGE and silver staining. As a result, the purity of the resulting soluble CD44 was more than 95%.
as §1, §2, §3, §4, §5, §6

P-selectin-Ig = test: Binding inhibition assay (ELISA), biotinylated versican to P-selectin-Ig, various concentrations; conditions: dose-dependent, FIG. 2 panel B
[2] = biological target: T2, γ-interferon inducible protein-10 (Homo sapiens, UniProt P02778); test: BIAcore surface plasmon resonance, immobilized glycosaminoglycan vs IP-10; assay type: binding; conditions: for Kd / koff / kon: GAG immobilized, 25° C.
T2 sequence (P02778 22-98): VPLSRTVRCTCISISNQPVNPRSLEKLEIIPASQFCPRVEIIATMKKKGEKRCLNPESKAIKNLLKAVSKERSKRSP
Protocol: as §1, §2, §3, §4, §5, §6

platelet factor 4 = biological target: T3, platelet factor 4 (Homo sapiens, UniProt P02776); test: ELISA, biotinylated versican binding to PF4 in presence of glycosaminoglycan; conditions: 100 μg/ml glycosaminoglycan; FIG. 5
T3 sequence (P02776 32-101): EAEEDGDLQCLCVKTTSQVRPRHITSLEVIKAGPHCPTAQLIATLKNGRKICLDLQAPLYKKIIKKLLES
Protocol: (§7) A well of a 96 well flat bottom microtiter plate was coated with BSA (5 μg/ml), anti-versican monoclonal antibody 2B1 (5 μg/ml), CD44-Ig (7 μg/ml), L-selectin-Ig (3 μg/ml), P-selectin-Ig (3 μg/ml) or chemokine (1 μg/ml), and then blocked with a phosphate buffered physiological saline containing 3% by weight of BSA. As the above chemokine, secondary lymphoid tissue chemokine, γ-interferon inducible protein-10, platelet factor 4, stromal cell-derived factor-1β [manufactured by Pepro Tech] and stromal cell-derived factor-1α [manufactured by Pepro Tech] were used.
(§8) Thereafter, the plate was washed with the buffer A, and enzyme-linked immunosorbent assay was performed in the same manner as that of the previous report [Kawashima, H. et al., J. Biol. Chem., 275, 35448-35456 (2000)]. Binding was determined by measuring absorbance at 620 nm using alkaline phosphatase-conjugated streptavidin and Blue Phos™ substrate. In FIG. 5, expression of an abscissa axis is the same as that of FIG. 4.

[3] = biological target: T2, γ-interferon inducible protein-10; test: ELISA, biotinylated versican binding to IP-10 in presence of glycosaminoglycan; conditions: 100 μg/ml glycosaminoglycan; FIG. 5
Protocol: as §7, §8

L-selectin-Ig = biological target: T4, L-selectin-Ig (Homo sapiens, UniProt P14151); test: Binding inhibition assay (ELISA), biotinylated versican to L-selectin-Ig, various concentrations; conditions: dose-dependent, FIG. 2 panel A
T4 construct: purchased R & D Systems Inc
T4 sequence (P14151 with tags, fused parts or gaps limits assumed): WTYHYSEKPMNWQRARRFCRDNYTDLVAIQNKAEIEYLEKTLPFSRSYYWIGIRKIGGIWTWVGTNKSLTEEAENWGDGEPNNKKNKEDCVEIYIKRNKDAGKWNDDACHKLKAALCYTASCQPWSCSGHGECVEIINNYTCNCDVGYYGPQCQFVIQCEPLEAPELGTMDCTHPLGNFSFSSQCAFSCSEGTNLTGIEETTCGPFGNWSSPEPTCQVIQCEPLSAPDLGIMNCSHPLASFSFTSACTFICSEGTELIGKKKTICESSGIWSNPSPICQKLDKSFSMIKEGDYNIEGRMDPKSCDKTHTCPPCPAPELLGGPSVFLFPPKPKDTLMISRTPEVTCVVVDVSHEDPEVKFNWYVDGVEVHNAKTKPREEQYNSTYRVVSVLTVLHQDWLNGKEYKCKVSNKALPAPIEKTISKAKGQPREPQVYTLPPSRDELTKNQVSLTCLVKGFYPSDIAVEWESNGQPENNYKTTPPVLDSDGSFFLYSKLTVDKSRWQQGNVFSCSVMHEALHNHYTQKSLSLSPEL

[4] = CD44 monomeric, GAG immobilized, 25° C.

Substance | interaction with immobilized glycosaminoglycan (sensorgram) [1] | Kd [1] [nM] | koff [1] [s⁻¹] | kon [1] [M⁻¹ s⁻¹] | Kd (monomeric CD44; monomeric CD44, weakly bound, equilibrium value) [nM] | inhibition of binding between biotinylated versican and P-selectin-Ig (P-selectin-Ig) | interaction with immobilized glycosaminoglycan (sensorgram) [2] | Kd [2] [nM] | koff [2] [s⁻¹] | kon [2] [M⁻¹ s⁻¹] | inhibition of binding between biotinylated versican and platelet factor 4 (platelet factor 4) | inhibition of binding between biotinylated versican and γ-interferon inducible protein-10 [3] | inhibition of binding between biotinylated versican and L-selectin-Ig (L-selectin-Ig) | Kd (monomeric CD44; [4]) [nM] | koff (monomeric CD44; [4]) [s⁻¹] | kon (monomeric CD44; [4]) [M⁻¹ s⁻¹] | binding of monomeric CD44 to glycosaminoglycan (monomeric CD44; monomeric CD44)
chondroitin sulfate E [CS E] | bound | 85.8 | 0.00356 | 41500 | 211000 | inhibited | bound | 130 | 0.00211 | 16200 | inhibited | inhibited | inhibited |  |  |  | 
chondroitin sulfate A [CS A] | did not interact |  |  |  |  | not inhibited | did not interact |  |  |  |  |  | not inhibited | 85200 | 0.049 | 576 | 
chondroitin polysulfate [CPS] |  | 101 | 0.00244 | 24200 |  | inhibited |  | 73.2 | 0.0023 | 31500 | inhibited | inhibited | inhibited |  |  |  | did not bind
dermatan polysulfate [DPS] |  | 32.2 | 0.000278 | 8640 |  | inhibited |  | 34.9 | 0.000923 | 26400 | inhibited | inhibited | inhibited |  |  |  | did not bind
